As usually defined, the pEC50 is the EC50 on a negative log10 scale, so that one unit is a factor of ten.

For 25 molecules, EC50 results are on record in US20220396569A1 (Carmot Therapeutics, Inc., priority 2021, published 2022).

For this experiment, the target named is T1, human GLP-1 receptor (Homo sapiens, UniProt P43220).
T1 construct: expressed in transfected cells
Kind of experiment: GLP-1R cAMP Assay (HitHunter cAMP accumulation). The format is cell-based. Conditions: cAMP accumulation, CHO cells stably overexpressing human GLP-1 receptor, 30 min treatment; read-out: EC50. An outline of the steps: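 CHO cells stably expressing human GLP-1R, 10,000 cells/well in HBSS with 10 mM HEPES and 625 μM IBMX, were mixed with anti-cAMP antibody reagent. Compound was applied as a 20-point dose response in triplicate for 30 min. After lysis and overnight detection, luminescence was read and dose-response curves analysed.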
Background: cAMP levels reflect the balance of adenylyl cyclase and phosphodiesterase activity.

pEC50: −log10 of the molar value. A value given as a limit tells only on which side of the number the result lay.

T1 sequence (P43220 24-463): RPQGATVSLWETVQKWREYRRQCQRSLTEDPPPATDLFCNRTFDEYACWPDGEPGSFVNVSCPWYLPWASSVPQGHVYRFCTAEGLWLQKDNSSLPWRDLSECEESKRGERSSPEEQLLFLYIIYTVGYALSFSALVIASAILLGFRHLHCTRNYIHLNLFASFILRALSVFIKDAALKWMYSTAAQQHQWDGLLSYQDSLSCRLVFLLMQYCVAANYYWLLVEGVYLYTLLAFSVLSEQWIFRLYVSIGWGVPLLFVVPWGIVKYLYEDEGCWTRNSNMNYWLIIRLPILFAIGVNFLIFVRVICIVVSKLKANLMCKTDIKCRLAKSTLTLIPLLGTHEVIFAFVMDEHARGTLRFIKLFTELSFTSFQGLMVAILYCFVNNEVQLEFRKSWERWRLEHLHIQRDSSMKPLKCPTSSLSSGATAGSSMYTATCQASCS

In the case of `O=C(O)c1cc(F)c2nc(Cc3ccc(Oc4ccnc(COc5ccc(Cl)cc5F)c4)cc3F)n(C[C@@H]3CCO3)c2c1` [Example 459, (S)-2-(4-((2-((4-Chloro-2-fluorophenoxy)methyl)pyridin-4-yl)oxy)-2-fluorobenzyl)-4-fluoro-1-(oxetan-2-ylmethyl)-1H-benzo[d]imidazole-6-carboxylic acid], the negative-log EC50 (pEC50) is > 7.30.

As for `O=C(O)c1ccc2nc(CN3CCC(c4cc(F)cc(COc5ccc(Cl)cc5F)c4)C3)n(C[C@@H]3CCO3)c2c1` (stereo partly drawn) [Compound 420, 2-[(3-{3-[(4-chloro-2-fluorophenoxy)methyl]-5-fluorophenyl}pyrrolidin-1-yl)methyl]-1-{[(2S)-oxetan-2-yl]methyl}-1H-1,3-benzodiazole-6-carboxylic acid], the negative logarithm of the EC50 (pEC50) is > 7.30.

In the case of `O=C(O)c1ccc2nc(Cc3cc(F)c(Oc4ccnc(COc5ccc(Cl)cc5F)c4)cc3F)n(C[C@@H]3CCO3)c2c1` [Compound 536, (S)-2-(4-((2-((4-Chloro-2-fluorophenoxy)methyl)pyridin-4-yl)oxy)-2,5-difluorobenzyl)-1-(oxetan-2-ylmethyl)-1H-benzo[d]imidazole-6-carboxylic acid], the pEC50 was > 7.30.

Regarding `O=C(O)c1ccc2nc(CN3CC[C@H](Oc4ccnc(COc5ccc(Cl)cc5F)n4)C3)n(C[C@@H]3CCO3)c2c1` [Example 360, 2-(((S)-3-((2-((4-Chloro-2-fluorophenoxy)methyl)pyrimidin-4-yl)oxy)pyrrolidin-1-yl)methyl)-1-(((S)-oxetan-2-yl)methyl)-1H-benzo[d]imidazole-6-carboxylic acid], the pEC50 was > 7.30.

With `N#Cc1ccc(OCc2cc([C@@H]3CCN(Cc4nc5ccc(C(=O)O)cc5n4C[C@@H]4CCO4)C3)ccc2F)c(F)c1` [Compound 443, 2-{[(3S)-3-{3-[(4-cyano-2-fluorophenoxy)methyl]-4-fluorophenyl}pyrrolidin-1-yl]methyl}-1-{[(2S)-oxetan-2-yl]methyl}-1H-1,3-benzodiazole-6-carboxylic acid], the negative logarithm of the EC50 (pEC50) is > 7.30.

Turning to `N#Cc1ccc(OCc2cc([C@@H]3CCN(Cc4nc5c(F)cc(C(=O)O)cc5n4C[C@@H]4CCO4)C3)ccc2F)c(F)c1` [Compound 450, 2-{[(3S)-3-{3-[(4-cyano-2-fluorophenoxy)methyl]-4-fluorophenyl}pyrrolidin-1-yl]methyl}-4-fluoro-1-{[(2S)-oxetan-2-yl]methyl}-1H-1,3-benzodiazole-6-carboxylic acid], the pEC50 was > 7.30.

`CCn1cncc1Cn1c(CN2CC(Oc3ccnc(COc4ccc(Cl)cc4C#N)c3)C2)nc2ccc(C(=O)O)cc21` [Compound 211, 2-{[3-({2-[(4-chloro-2-cyanophenoxy)methyl]pyridin-4-yl}oxy)azetidin-1-yl]methyl}-1-[(1-ethyl-1H-imidazol-5-yl)methyl]-1H-1,3-benzodiazole-6-carboxylic acid]: the pEC50 was > 7.30.

With `N#Cc1ccc(OCc2cccc(C3=CCN(Cc4nc5ccc(C(=O)O)cc5n4C[C@@H]4CCO4)C3)c2)c(F)c1` [Compound 400, 2-[(3-{3-[(4-cyano-2-fluorophenoxy)methyl]phenyl}-2,5-dihydro-1H-pyrrol-1-yl)methyl]-1-{[(2S)-oxetan-2-yl]methyl}-1H-1,3-benzodiazole-6-carboxylic acid], the negative-log EC50 (pEC50) is > 7.30.

As to `O=C(O)c1ccc2nc(CN3CCC(c4cc(COc5ccc(Cl)cc5F)ccc4F)C3)n(C[C@@H]3CCO3)c2c1` (stereo partly drawn) [Compound 419, 2-[(3-{5-[(4-chloro-2-fluorophenoxy)methyl]-2-fluorophenyl}pyrrolidin-1-yl)methyl]-1-{[(2S)-oxetan-2-yl]methyl}-1H-1,3-benzodiazole-6-carboxylic acid], the pEC50 was > 7.30.

Turning to `O=C(O)c1ccc2nc(CN3CC(Oc4ccnc(COc5ccc(Cl)cc5Cl)c4)C3)n(Cc3ccno3)c2c1` [Compound 236, 2-{[3-({2-[(2,4-dichlorophenoxy)methyl]pyridin-4-yl}oxy)azetidin-1-yl]methyl}-1-[(1,2-oxazol-5-yl)methyl]-1H-1,3-benzodiazole-6-carboxylic acid], the pEC50 was > 7.30.

Turning to `CCn1cncc1Cn1c(CN2CCC(Cn3ccc(COc4ccc(Cl)cc4C#N)n3)CC2)nc2ccc(C(=O)O)cc21` [Compound 282, 2-{[4-({3-[(4-chloro-2-cyanophenoxy)methyl]-1H-pyrazol-1-yl}methyl)piperidin-1-yl]methyl}-1-[(1-ethyl-1H-imidazol-5-yl)methyl]-1H-1,3-benzodiazole-6-carboxylic acid], the negative-log EC50 (pEC50) is > 7.30.

Turning to `O=C(O)c1cc(F)c2nc(CN3CC=C(c4cc(COc5ccc(Cl)cc5F)ncc4F)C3)n(C[C@@H]3CCO3)c2c1` [Compound 452], the negative logarithm of the EC50 (pEC50) is > 7.30.

With `CC1(c2ccc(Cl)cc2F)Oc2cccc(CC3CCN(Cc4nc5ccc(C(=O)O)cc5n4C[C@@H]4CCO4)CC3)c2O1` (stereo partly drawn) [Example 201, 2-((4-((2-(4-Chloro-2-fluorophenyl)-2-methylbenzo[d][1,3]dioxol-4-yl)methyl)piperidin-1-yl)methyl)-1-(((S)-oxetan-2-yl)methyl)-1H-benzo[d]imidazole-6-carboxylic acid], the negative-log EC50 (pEC50) was 6.30 to 7.30.

With `N#Cc1ccc(OCc2cc([C@H]3CCN(Cc4nc5c(F)cc(C(=O)O)cc5n4C[C@@H]4CCO4)C3)ccc2F)c(F)c1` (single isomer, unassigned) [Example 449], the pEC50 is > 7.30.

As to `N#Cc1ccc(OCc2nc(C34CC3CN(Cc3nc5c(F)cc(C(=O)O)cc5n3C[C@@H]3CCO3)C4)ccc2F)c(Cl)c1` (stereo partly drawn) [Compound 525, 2-[(1-{6-[(2-chloro-4-cyanophenoxy)methyl]-5-fluoropyridin-2-yl}-3-azabicyclo[3.1.0]hexan-3-yl)methyl]-4-fluoro-1-{[(2S)-oxetan-2-yl]methyl}-1H-1,3-benzodiazole-6-carboxylic acid], the negative logarithm of the EC50 (pEC50) was > 7.30.

For the molecule `N#CCC1(Cn2c(CN3CC[C@@H](c4ccnc(COc5ccc(Cl)cc5F)c4)C3)nc3ccc(C(=O)O)cc32)CC1` [Compound 431, 2-{[(3S)-3-{2-[(4-chloro-2-fluorophenoxy)methyl]pyridin-4-yl}pyrrolidin-1-yl]methyl}-1-{[1-(cyanomethyl)cyclopropyl]methyl}-1H-1,3-benzodiazole-6-carboxylic acid], the negative-log EC50 (pEC50) was > 7.30.

Consider `CCn1cncc1Cn1c(CN2CC=C(c3cccc(COc4ccc(Cl)cc4Cl)n3)C2)nc2ccc(C(=O)O)cc21` [Compound 385, 2-[(3-{6-[(2,4-dichlorophenoxy)methyl]pyridin-2-yl}-2,5-dihydro-1H-pyrrol-1-yl)methyl]-1-[(1-ethyl-1H-imidazol-5-yl)methyl]-1H-1,3-benzodiazole-6-carboxylic acid], for which the pEC50 is > 7.30.

`CCn1cncc1Cn1c(CN2C[C@@H](Oc3ccnc(COc4ccc(Cl)cc4Cl)c3)[C@@H]2C)nc2ccc(C(=O)O)cc21` [Compound 293, 2-{[(2S,3R)-3-({2-[(2,4-dichlorophenoxy)methyl]pyridin-4-yl}oxy)-2-methylazetidin-1-yl]methyl}-1-[(1-ethyl-1H-imidazol-5-yl)methyl]-1H-1,3-benzodiazole-6-carboxylic acid]: the pEC50 was > 7.30.

Regarding `N#Cc1ccc(OCc2nc(C3CCN(Cc4nc5ccc(C(=O)O)cc5n4C[C@@H]4CCO4)C3)ccc2F)c(F)c1` (stereo partly drawn) [Compound 410, 2-[(3-{6-[(4-cyano-2-fluorophenoxy)methyl]-5-fluoropyridin-2-yl}pyrrolidin-1-yl)methyl]-1-{[(2S)-oxetan-2-yl]methyl}-1H-1,3-benzodiazole-6-carboxylic acid], the pEC50 was > 7.30.

`O=C(O)c1ccc2nc(CN3CCC(c4cccc(COc5ccc(Cl)cc5Cl)n4)C3)n(C[C@@H]3CCO3)c2c1` (stereo partly drawn) [Example 386, 2-((3-(6-((2,4-Dichlorophenoxy)methyl)pyridin-2-yl)pyrrolidin-1-yl)methyl)-1-(((S)-oxetan-2-yl)methyl)-1H-benzo[d]imidazole-6-carboxylic acid]: the pEC50 was > 7.30.

Take `O=C(O)c1ccc2nc(CN3CC=C(c4ccnc(COc5ccc(Cl)cc5F)c4)C3)n(Cc3ncco3)c2c1` [Compound 404, 2-[(3-{2-[(4-chloro-2-fluorophenoxy)methyl]pyridin-4-yl}-2,5-dihydro-1H-pyrrol-1-yl)methyl]-1-[(1,3-oxazol-2-yl)methyl]-1H-1,3-benzodiazole-6-carboxylic acid]: the negative-log EC50 (pEC50) was > 7.30.

For the molecule `O=C(O)c1ccc2nc(CN3CC(Cc4ccnc(COc5ccc(Cl)cc5Cl)c4)C3)n(Cc3ncco3)c2c1` [Compound 181, 2-{[3-({2-[(2,4-dichlorophenoxy)methyl]pyridin-4-yl}methyl)azetidin-1-yl]methyl}-1-[(1,3-oxazol-2-yl)methyl]-1H-1,3-benzodiazole-6-carboxylic acid], the negative logarithm of the EC50 (pEC50) is > 7.30.

On to `N#Cc1ccc(OCc2nccc(C3=CCN(Cc4nc5ccc(C(=O)O)cc5n4C[C@@H]4CCO4)C3)n2)c(F)c1` [Example 395, (S)-2-((3-(2-((4-Cyano-2-fluorophenoxy)methyl)pyrimidin-4-yl)-2,5-dihydro-1H-pyrrol-1-yl)methyl)-1-(oxetan-2-ylmethyl)-1H-benzo[d]imidazole-6-carboxylic acid], for which the pEC50 was > 7.30.

As to `CCn1cncc1Cn1c(Cc2ccc(Oc3ccnc(COc4ccc(Cl)cc4F)c3)cc2F)nc2ccc(C(=O)O)cc21` [Compound 462, 2-{[4-({2-[(4-chloro-2-fluorophenoxy)methyl]pyridin-4-yl}oxy)-2-fluorophenyl]methyl}-1-[(1-ethyl-1H-imidazol-5-yl)methyl]-1H-1,3-benzodiazole-6-carboxylic acid], the negative-log EC50 (pEC50) is > 7.30.

Take `O=C(O)c1ccc2nc(CN3CC(Oc4cccc(COc5ccc(Cl)cc5Cl)c4)C3)n(Cc3ncco3)c2c1` [Compound 228, 2-[(3-{3-[(2,4-dichlorophenoxy)methyl]phenoxy}azetidin-1-yl)methyl]-1-[(1,3-oxazol-2-yl)methyl]-1H-1,3-benzodiazole-6-carboxylic acid]: the pEC50 is > 7.30.
